Reference: PubChem BioAssay AID2305 (GlaxoSmithKline (GSK), 2010)

Test system: P. falciparum 3D7 growth, pLDH absorbance
Assay: blood-stage malaria parasite growth potency – strain 3D7, dose response (AID 2305)

Structure (SMILES) | IC50
CC[C@H]1CN2CC[C@H]1C[C@@H]2[C@H](O)c1ccnc2ccc(O)cc12 | 1040 nM
O=C(/C=C/c1ccc(Cl)c(Cl)c1)NCCCCCN1CCCC(C(=O)Nc2ccc(F)c(Cl)c2)C1 (configuration not stated) | 900 nM
Cc1cc2nc(-c3ccc(/C=C/C(=O)NC4CCCCC4)cc3)[nH]c2cc1C | 1010 nM
O=C(Nc1cccc(CN2CCCN(Cc3ccc(F)cc3)CC2)c1)c1cc2ccccc2s1 | 790 nM
Fc1cccc(COc2ccc(-n3ccc4c(NCCCn5ccnc5)ncnc43)cc2Cl)n1 | 1030 nM
COc1cc2c(cc1OC)CN(CCCCNC(=O)c1ccc(NC(=O)c3cc(Cl)cc(Cl)c3)cc1)CC2 | 780 nM
COc1ccc([C@@]23Oc4cc(OC)cc(OC)c4[C@]2(O)C2(CC3c3ccccc3)SCCCS2)cc1 (some centres not stated) | 120 nM
CC(=O)c1c(Cc2cccc(C(F)(F)F)c2)c[nH]c1C | 350 nM
COc1ccc(C2C(C(=O)Nc3ccccc3)=C(C)Nc3c(C(=O)Nc4ccccc4)cnn32)cc1 (configuration not stated) | 1310 nM
COc1ccc(C(=O)N2CCC3(CC2)C(=O)N(CC(=O)NCC2CCCCC2)CN3c2ccccc2)c(OC)c1 | 120 nM
Cn1cnc2c(Nc3ccncc3)nc(-c3ccc4ccccc4c3)nc21 | 870 nM
CC(=O)c1ccc(-c2cccc3c(CC(=O)Nc4ccc5nccc(N6CCN(C)CC6)c5c4)cccc23)cc1 | 500 nM
c1ccc(CNCc2cccc(-c3cccc(-c4nc5ccccc5[nH]4)c3)c2)cc1 | 570 nM
N#Cc1cccc(NC(=O)Nc2ccc(-c3ccc(-c4nc5ccc(C(F)(F)F)cc5[nH]4)cc3)cc2)c1 | 140 nM
CN1CCC(c2csc3ccc(NC(=O)Nc4ccc(-c5ccncc5)c5ccccc45)cc23)CC1 | 1020 nM
Nc1cccc(CNCc2ccc(-c3ccc(-c4nc5ccc(C(F)(F)F)cc5[nH]4)s3)cc2)c1 | 440 nM
COc1ccc(Nc2nccc(N3CCC(NC(=O)Nc4cccc(OC)c4)C3)n2)cc1 (configuration not stated) | 420 nM
CC(=NN=C(N)N)C(=O)Nc1ccc(Cl)c(Cl)c1 | 170 nM
CCC(C)c1ccc(NC(=O)Nc2ccc(Cn3ncc(N4CCCNCC4)c(Cl)c3=O)cc2)cc1 (configuration not stated) | 1030 nM
O=[N+]([O-])c1cccc(NC(=S)N2CCCN(Cc3ccc(Cl)cc3Cl)CC2)c1 | 930 nM
N#Cc1ccc2[nH]cc(CN3CCC4(CC3)CN(CCNCc3ccccc3)C(=O)O4)c2c1 | 1160 nM
CCc1cc2c(N)nc(N)nc2nc1-c1ccccc1 | 950 nM
O=C(Nc1cccc(-c2ccc(CN3CCCC3)cc2)c1)c1ccc(F)cc1 | 1080 nM
CCc1ccc(C2CCN(CCCCNC(=O)c3ccc(-c4ccc(Cl)cc4)cc3)CC2)c(O)c1 | 890 nM
CCOC(=O)c1cnc2c(C(F)(F)F)cccc2c1Nc1ccc(O)cc1 | 630 nM

Structure (SMILES) | IC50
CN(CCCCCNC(=O)/C=C/c1ccc(Cl)c(Cl)c1)CCCCc1c[nH]c2ccccc12 | 1080 nM
CC1(C)N=C(N)N=C(N)N1OCCCCON1C(N)=NC(N)=NC1(C)C | 70 nM
O=C(Cc1c(-c2ccccc2)[nH]c2ccccc12)NC1CCC(CN2CCC(c3c[nH]c4ccccc34)CC2)CC1 (configuration not stated) | 480 nM
FC(F)(F)c1ccc(-c2cncc(-c3ccc(C(F)(F)F)cc3)n2)cc1 | 760 nM
Nc1nc(N)c2c(ccc3c2ncn3Cc2ccccc2)n1 | 90 nM
CN1CCC(C(=O)Nc2cccc(-c3ccc(-c4nc5ccc(C(F)(F)F)cc5[nH]4)s3)c2)CC1 | 720 nM
Cc1cccc2[nH]c(-c3ccc(-c4cccc(NC(=O)c5cncn5C)c4)cc3)nc12 | 860 nM
CC(C)(C)CCN1CCC(CNC(=O)c2cc(-c3cccc(Cl)c3)cs2)C1 (configuration not stated) | 820 nM
COC(=O)c1ccc2nc(-c3ccc(C(=O)NCc4ccc(Cl)c(Cl)c4)cc3)[nH]c2c1 | 850 nM
N#Cc1c(-c2ccccc2)cn2c1[nH]c(=O)c1ccccc12 | 110 nM
CCc1cc(Br)c(CNCCCNc2cc(=O)c3ccccc3[nH]2)s1 | 950 nM
CN(C)S(=O)(=O)c1ccc(Nc2nc(NCCC3C=NC=N3)nc3cc[nH]c(=O)c23)cc1 (configuration not stated) | 930 nM
COc1ccccc1C1CCN(C2CCC(NC(=O)/C=C/c3cccc(Cl)c3)CC2)CC1 (configuration not stated) | 1030 nM
Cc1cc(-c2cccc(CNC3CCN(C)CC3)c2)ccc1S(=O)(=O)NCCN1CCCC1 | 980 nM
CCN1CCN(c2cc(C)c3cc(NC(=O)c4ccc(N(CC)CC)cc4)ccc3n2)CC1 | 960 nM
CC(C)(C)c1ccc(CN2CCC(CNC(=O)c3cc(-c4ccccc4Cl)cs3)C2)cc1 (configuration not stated) | 860 nM
C=CCNC(=O)CCCN=C(N)N | 720 nM
O=C1COc2ccc(CNC3CCC(O)(CCc4ccnc5cc6c(cc45)OCCO6)CC3)nc2N1 (configuration not stated) | 930 nM
CCN(CC(C)O)C(=O)c1ccc(-c2ccc(-c3nc4c(C)cccc4[nH]3)cc2)cc1 (configuration not stated) | 840 nM
O=C(/C=C/c1ccc(Cl)c(Cl)c1)NCC1CCC(N2CCC(c3c[nH]c4ccccc34)CC2)CC1 (configuration not stated) | 170 nM
N#Cc1ccc(C(=O)NC2CCN(CCCCCNC(=O)/C=C/c3ccc(Cl)c(Cl)c3)CC2)cc1 | 840 nM
O=C(NC1CCC(N2CCN(c3cccc4[nH]ccc34)CC2)CC1)c1cc2cccnc2[nH]1 (configuration not stated) | 490 nM
C=CCn1c(Sc2ccc(C#N)c([N+](=O)[O-])c2)nnc1-c1cccc(Cl)c1 | 300 nM
O=C(/C=C/c1ccc(C(F)(F)F)cc1)NCCCCCN1CCCN(C(=O)Nc2ccc(Cl)c(C(F)(F)F)c2)CC1 | 200 nM
C=CCOc1ccc(C(=O)Nc2nonc2-c2ccc(OC)c(OC)c2)cc1 | 640 nM

Structure (SMILES) | IC50
CC(=O)Nc1ccc(Nc2ncc([N+](=O)[O-])c(Nc3ccccc3C(N)=O)n2)cc1 | 370 nM
COC(=O)c1cccc(N2CCN(CCCNC(=O)/C(=C/C=C/c3cc4cc(Cl)c(Cl)cc4[nH]3)OC)CC2)c1 | 670 nM
Cc1nc(-c2ccncc2)sc1C(=O)Nc1ccc(Cl)cc1C(=O)Nc1ccc(Cl)cc1 | 760 nM
O=C(Nc1cccc(-c2cccc(-c3nc4ccc(F)cc4[nH]3)c2)c1)Nc1ccc(F)c(F)c1F | 90 nM
CCCNCc1ccc(-c2ccc(CN(Cc3cnc(C)cn3)C(=O)/C=C/c3ccccc3C)cc2)nc1 | 920 nM
Cc1cc(C)cc(CC(=O)N2CCC(n3c(C)nc4ccc(C)cc43)CC2)c1 | 530 nM
O=C(Nc1ccc(-c2cccc(-c3nc4ccc(C(F)(F)F)cc4[nH]3)c2)cc1)c1ccncc1 | 660 nM
CN1CCC(NCc2cccc(-c3cccc(-c4nc5ccc(C(F)(F)F)cc5[nH]4)c3)c2)CC1 | 140 nM
O=C(Nc1ccccc1C(F)(F)F)Nc1nn(Cc2c(F)cccc2Cl)cc1Br | 340 nM
CCN(CC)CCN(Cc1ccc(-c2ccc(C(F)(F)F)cc2)cc1)C(=O)Cn1c(CCc2cccc(F)c2F)nc(=O)c2sccc21 | 900 nM
Cc1cccc2[nH]c(-c3ccc(-c4ccc(CN5CCN(c6ccc(C#N)cn6)CC5)cc4)s3)nc12 | 1130 nM
COc1ccc(-c2cccc(NC(=O)c3cccc(C#N)c3)c2)cc1CN1CCC(O)CC1 | 990 nM
COc1cc2nc(N(C)Cc3cc4c(Cl)cccc4s3)nc(N)c2cc1OC | 950 nM
COc1ccc2nccc(N3CCC(O)(CCNCc4ccc5c(n4)NC(=O)CS5)CC3)c2n1 | 650 nM
O=C(Nc1ccc2c(c1)CCN2C1CCN(Cc2ccc(F)cc2Cl)C1)c1ccco1 (configuration not stated) | 470 nM
CN1CCN(c2ccc3nc(-c4ccc5nc(-c6ccc(O)cc6)[nH]c5c4)[nH]c3c2)CC1 | 120 nM
O=C(Nc1ccc(Cl)cc1)Nc1cccc(-c2cccc(-c3nc4ccc(F)cc4[nH]3)c2)c1 | 220 nM
COC(=O)c1ccc2nc(-c3ccc(/C=C/C(=O)NCc4ccc(Cl)c(Cl)c4)cc3)[nH]c2c1 | 1340 nM
CCNc1cc(C(=O)N[C@@H](Cc2ccccc2)[C@H](O)CNC23CCC(CC2)C3)cc(N2CCCCS2(=O)=O)c1 | 30 nM
CCc1ccc(NC(=O)c2ccc(CN3CCCN(CCC(C)C)CC3)cc2)cc1 | 630 nM
NC1CCN(CCNCc2cccc(-c3ccc(-c4nc5ccc(C(F)(F)F)cc5[nH]4)cc3)c2)C1 (configuration not stated) | 890 nM
Cc1[nH]c(C)c(-c2ccc(Oc3ccc(Cl)cc3)c(Cl)c2)c(=O)c1Br | 490 nM
COc1ccc(Cc2c(Cl)nc3nc(N)nc(N)c3c2C)c(OC)c1OC | 720 nM
Fc1ccc2c(NN=Cc3ccccc3)ccnc2c1 | 740 nM
N#Cc1ccc(C=NNc2nc3ccccc3[nH]2)cc1 | 1000 nM

Structure (SMILES) | IC50
OC[C@H](Nc1nc(C(Oc2ccccc2)c2ccccc2)nc2[nH]ncc12)c1ccccc1 (some centres not stated) | 850 nM
NC(=O)c1ccccc1OCC(=O)Nc1cccc(-c2ccc(-c3nc4ccc(C(F)(F)F)cc4[nH]3)cc2)c1 | 650 nM
CNc1ccc(CNCc2ccc(-c3ccc(-c4nc5c(C)cccc5[nH]4)cc3)cc2)cc1 | 320 nM
CC(C)CCNCc1ccc(OCc2ccccc2COc2ccc(CNCCC(C)C)cc2I)c(I)c1 | 430 nM
c1cncc(CCNCc2cccc(-c3ccc(-c4nc5ccccc5[nH]4)s3)c2)c1 | 200 nM
FC(F)(F)CNc1nc(Nc2ccc3ncccc3c2)nc2[nH]ccc12 | 1240 nM
Cc1c(F)cc(C(=O)NC2CC2)cc1-c1ccc2c(cnn2S(=O)(=O)c2ccc(C#N)cc2)c1 | 100 nM
CN1CCN(c2ccnc3cc4c(cc23)N(Cc2ccccc2)CC4)CC1 | 1140 nM
CC1(C)N=C(N)N=C(N)N1c1ccc(I)cc1 | 40 nM
Cc1cccc2[nH]c(-c3ccc(-c4ccc(CN5CCC(CCN6CCCCC6)CC5)cc4)cc3)nc12 | 140 nM
Fc1ccc2nc(-c3cccc(-c4ccc(CNCc5ccccc5)cc4)c3)[nH]c2c1 | 270 nM
O=C(NC1CCCCC1)N(Cc1ccc(-c2ccc(CNC3CCCC3)cc2)cc1)C1CCN(Cc2ccccc2)CC1 | 780 nM
Cc1cc(N(CCCN(C)C)Cc2cc(F)cc(F)c2)nc(Nc2ccc(Cl)cc2)n1 | 540 nM
Cc1c(-c2ccccc2)ccc2[nH]cc(CC#N)c12 | 700 nM
O=C(Nc1ccc(-c2ccc(-c3nc4ccccc4[nH]3)s2)cc1)c1ccncc1 | 790 nM
Nc1nc2c(c(=O)[nH]1)-c1cccc(Br)c1CC2 | 700 nM
N#Cc1ccc2c(c1)CCN(CCC1CCC(NC(=O)Nc3ccncc3)CC1)C2 (configuration not stated) | 1130 nM
CC(C)C[C@@H](C(=O)Nc1ccc(Cc2ccc(NC(=O)[C@H](CC(C)C)N(C)C(=O)OC(C)(C)C)cc2)cc1)N(C)C(=O)OC(C)(C)C | 820 nM
CCc1ccc(C(=O)Nc2cccc(CN3CCCN(Cc4ccc(O)cc4)CC3)c2)cc1 | 1030 nM
CN1CCc2cc(O)c(NS(=O)(=O)c3ccc(-c4ccc(Cl)cc4)cc3)cc2CC1 | 770 nM
CN(C)CCOc1ccc(-c2cc(-c3ccncc3)c(-c3ccc(Cl)c(O)c3)o2)cc1 | 210 nM
COc1cccc2cc(C(=O)N[C@@H](CC(C)C)C(=O)N[C@H](/C=N/N(C)C(=O)OC(C)(C)C)Cc3ccccc3)oc12 | 260 nM
